The source of these data is publication PMC10185643, “Improved LC–MS identification of short homologous peptides using sequence-specific retention time predictors” (Analytical and Bioanalytical Chemistry, 2023).

The series in a line: Reversed-phase LC-MS experimental retention time of short peptides. The note with it: for RT: experimental retention time, reversed-phase LC-MS, Table S1, column Source gives the peptide's origin (1-4 = synthesis route of homologous peptides, enzyme). Type of series: physicochemical.

Description: All analyses were performed on an UltiMate 3000 RS chromatography system equipped with a UV detector, connected to a Q-Exactive Plus Hybrid Quadrupole-Orbitrap mass spectrometer (Thermo Fischer Scientific, Waltham, MA, USA). An Xselect Peptide CSH C18 130 Å column (particle size 2.5 µm, dimensions 150 × 2.1 mm, Waters, Etten-Leur, the Netherlands) with associated VanGuard pre-column was used for the separations. The analytes were eluted at a flow rate of 0.35 ml/min using a linear gradient of water (solvent A) and acetonitrile (solvent B) both fortified with 0.1% formic acid. […] The column temperature was maintained at 40 °C and the auto-sampler at 4 °C. The injection volume was 5 µL.
The sheath gas was set to 48 arbitrary units, the auxiliary gas was set to 11 arbitrary units, and the spray voltage was set to 3.7 kV. The mass spectrometer was set to operate in full-scan MS data-dependent MS^2 (ddMS^2) mode. Full-scan spectra were acquired at a resolution of 70.000 in the m/z range 80–1200 using a maximum ion injection time of 100 ms, unless stated otherwise. […] The maximum injection time was set to 150 ms, and a normalized stepped collision energy was applied of 15, 30 and 45 arbitrary units.

As for KCEVF, the RT was 4,52. Still for that read-out and setting: to CLVR belongs 4,57. Take CPFD: the “RT (retention time)” value (Table S1, Source: enzyme, experimental reversed-phase LC-MS retention time, decimal comma) is given as 13,62.
